Source: ChEMBL document CHEMBL1201862, “PubChem BioAssay data set” (2004)
Active and inactive are the calls of the source. Rule as the data show it, for most assays here: actives have a measured EC50 and inactives only a lower limit.

Assays:
Protein Tat = target: T1, Protein Tat (Human immunodeficiency virus type 1 group M subtype B (isolate HXB2)(HIV-1), UniProt P04608); type: functional;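 also: tat binding to TAR RNA read out by fluorescence polarization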
T1 sequence (P04608 whole entry): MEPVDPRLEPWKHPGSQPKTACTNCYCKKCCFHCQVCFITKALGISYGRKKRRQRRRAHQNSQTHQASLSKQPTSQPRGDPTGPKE

H4 = test: Luminescence Cell-Based Dose Response HTS to Identify Activators of 5'UTR Stem-Loop Driven Prion Protein mRNA Translation in H4 Neuroglioblastoma Cells. [Related pubchem assays: 1829 (Project Summary), 1814 (Primary HTS)]; type: functional; conditions: Homo sapiens
[1] = cytotoxicity toward NIH3T3 fibroblasts, dose response, counter-screen, cell-based, ATP luminescence, mouse fibroblasts (AID 2010); type: functional;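 also: cells exposed to compound for about 90 hours before reading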
[2] = Luminescence Cell-Based Dose Response to Identify Activators of Luciferase Translation or Activity in H4-C Neuroglioblastoma Cells. [Related pubchem assays: 1829 (Project Summary), 1814 (Primary HTS)]; type: functional
[3] = Luminescence Cell-Based Dose Confirmation HTS to Identify Activators of 5'UTR Stem-Loop Driven Alpha-Synuclein mRNA Translation in H4 Neuroglioblastoma Cells. [Related pubchem assays: 1829 (Project Summary), 1814 (Primary HTS)]; type: functional
[4] = inhibitors of intracellular T. cruzi replication, confirmation, NIH3T3 host cells, beta-gal luminescence (AID 2044); type: functional, cell-based;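 also: intracellular parasites grown in NIH/3T3 mouse fibroblasts as host cells; luminescent beta-galactosidase reporter signal from transgenic T. cruzi replicating inside host cells; inhibitors lower the luminescence signal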
[5] = Luminescence Cell-Based Dose Response to Identify Activators of 5'UTR Stem-Loop Driven Prion Protein mRNA Translation in H4-C Neuroglioblastoma Cells. [Related pubchem assays: 1829 (Project Summary), 1814 (Primary HTS)]; type: functional
[6] = Luminescence Cell-Based Dose Confirmation to Identify Activators of 5'UTR Stem-Loop Driven Alpha-Synuclein mRNA Translation in H4 Neuroglioblastoma Cells. [Related pubchem assays: 1829 (Project Summary), 1814 (Primary HTS)]; type: functional
[7] = Luminescence Cell-Based Dose Response HTS to Identify Activators of Luciferase Translation or Activity in H4 […] Cells. [Related pubchem assays: 1829 (Project Summary), 1814 (Primary HTS)]; type: functional
[8] = inhibitors of Vif binding to APOBEC3G peptide, primary screen, biochemical, TR-FRET, GST-Vif 1-94, biotin-A3G peptide, dose response retest (AID 1117319); type: functional;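 also: TR-FRET signal of purified GST-Vif binding a biotinylated A3G peptide; inhibitors lower the FRET signal by blocking Vif and A3G binding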

## O=C(Nc1ccccc1C(=O)NC(Cc1c[nH]c2ccccc12)C(=O)O)c1ccco1 (stereo unspecified)
Protein Tat
  IC50: > 100 µM (active)

## CCC(=O)Nc1ccc(C(=O)OCc2ccccc2Cl)cc1
H4
  EC50: 11.7 µM (active)
[1]
  EC50: > 60 µM (not active)
[2]
  EC50: 0.614 µM (active)
[3]
  EC50: < 0.1 µM (active)
[4]
  EC50: 0.815 µM (active)
[5]
  EC50: 8.13 µM (active)
[6]
  EC50: 0.976 µM (active)
[7]
  EC50: 37.7 µM (active)

## Cc1ccn2cc(CNS(=O)(=O)c3ccc(Cl)s3)nc2c1
[8]
  IC50: > 100 µM (active)
Protein Tat
  IC50: > 100 µM (active)
